# Reference: US10253039B2, “Inhibitors of bacterial DNA gyrase with efficacy against gram-negative bacteria” (priority 2014, dated 2019)
# Like-named read-outs stand apart in the source and are kept apart here.
# What was measured:
# Streptococcus agalactiae = test: MIC, 20-strain panel; format: cell-based
# Method in brief: (§1)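 Each of the 20 strains is tested in LB at a 1:10000 dilution of a growing subculture. Compound is titrated 2-fold in three replicates; a DMSO column serves as vehicle control. After shaking incubation at 37° C. for 16-18 hours, MIC is taken as the lowest clear concentration.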
# Streptococcus pyogenes = test: MIC, 20-strain panel; format: cell-based
# Method in brief: as §1
# E. coli MG1655 = test: MIC, 20-strain panel; format: cell-based; conditions: Escherichia coli, read-out: MIC
# Method in brief: as §1
# [1] = tested on: Salmonella enterica subsp. enterica typhimurium; test: MIC, 20-strain panel; format: cell-based
# Method in brief: as §1
# [2] = tested on: Staphylococcus aureus subsp. aureus; test: MIC, 20-strain panel; format: cell-based; conditions: read-out: MIC
# Method in brief: as §1
# [3] = tested on: Staphylococcus saprophyticus subsp. saprophyticus; test: MIC, 20-strain panel; format: cell-based
# Method in brief: as §1
# Shigella flexneri = test: MIC, 20-strain panel; format: cell-based
# Method in brief: as §1
# E. coli JW5503 (deltolC) = test: MIC, 20-strain panel; format: cell-based; conditions: Escherichia coli
# Method in brief: as §1
# [4] = tested on: Staphylococcus epidermidis; test: MIC, 20-strain panel; format: cell-based
# Method in brief: as §1
# [5] = tested on: Morganella morganii subsp. morganii; test: MIC, 20-strain panel; format: cell-based
# Method in brief: as §1
# [6] = tested on: Klebsiella pneumoniae subsp. pneumoniae; test: MIC, 20-strain panel; format: cell-based
# Method in brief: as §1
# Pseudomonas aeruginosa = test: MIC, microdilution in 96-well plates; format: cell-based
# Method in brief: as §1
# Edwardsiella tarda = test: MIC, microdilution in 96-well plates; format: cell-based
# Method in brief: as §1
# Acinetobacter baumannii = test: MIC, microdilution in 96-well plates; format: cell-based
# Method in brief: as §1
# Enterobacter aerogenes = test: MIC, microdilution in 96-well plates; format: cell-based; conditions: Klebsiella aerogenes
# Method in brief: as §1
# E. coli BW25113 = test: MIC, microdilution in 96-well plates; format: cell-based; conditions: Escherichia coli, read-out: MIC
# Method in brief: as §1
# [7] = tested on: E. coli BW25113 ΔtolC gyrR isolate GyrA His45Tyr; test: MIC against gyramide-resistant mutant; conditions: Escherichia coli, BW25113
# [8] = tested on: E. coli BW25113 ΔtolC cipR isolate GyrA Ser83Leu; test: MIC against ciprofloxacin-resistant mutant; conditions: Escherichia coli, BW25113
# [9] = tested on: E. coli BW25113 ΔtolC gyrR isolate GyrA Phe96Leu; test: MIC against gyramide-resistant mutant; conditions: Escherichia coli, BW25113
# [10] = tested on: E. coli BW25113 ΔtolC cipR isolate GyrB Ser464Phe; test: MIC against ciprofloxacin-resistant mutant; conditions: Escherichia coli, BW25113
# [11] = tested on: E. coli BW25113 ΔtolC gyrR isolate GyrB Thr508Met; test: MIC against gyramide-resistant mutant; conditions: Escherichia coli, BW25113
# [12] = tested on: E. coli BW25113 ΔtolC cipR isolate GyrA Asp87Gly; test: MIC against ciprofloxacin-resistant mutant; conditions: Escherichia coli, BW25113
# [13] = tested on: E. coli BW25113 ΔtolC gyrR isolate GyrA Pro35Thr; test: MIC against gyramide-resistant mutant; conditions: Escherichia coli, BW25113
# [14] = tested on: E. coli BW25113 ΔtolC cipR isolate GyrA Asp87Tyr; test: MIC against ciprofloxacin-resistant mutant; conditions: Escherichia coli, BW25113
# E. coli BW25113 ΔtolC = test: MIC, microdilution in 96-well plates; conditions: Escherichia coli, BW25113, E. coli BW25113 ΔtolC (parent strain)
# [15] = tested on: E. coli BW25113 ΔtolC gyrR isolate GyrA Ser97Pro; test: MIC against gyramide-resistant mutant; conditions: Escherichia coli, BW25113
# Bacillus subtilis 168 = test: MIC, 20-strain panel; format: cell-based; conditions: Table 7, separate set of experiments, read-out: MIC
# Method in brief: as §1
# Enterococcus faecalis = test: MIC, 20-strain panel; format: cell-based; conditions: Table 7, separate set of experiments
# Method in brief: as §1
# Enterococcus faecium = test: MIC, 20-strain panel; format: cell-based; conditions: Table 7, separate set of experiments, read-out: MIC
# Method in brief: as §1
# Bacillus cereus = test: MIC, 20-strain panel; format: cell-based; conditions: Table 7, separate set of experiments, read-out: MIC
# Method in brief: as §1
# [16] = MG1655, E. coli MG1655, Table 7, separate set of experiments
# [17] = F: Salmonella enterica subsp. enterica Typhimurium
# [18] = Salmonella enterica subsp. enterica typhimurium, Table 7, separate set of experiments
# [19] = H: Staphylococcus aureus subsp. aureus
# [20] = Table 7, separate set of experiments
# [21] = E. coli JW5503 (deltolC), Table 7, separate set of experiments
# [22] = E: Klebsiella pneumoniae subsp. pneumoniae
# [23] = BW25113, E. coli BW25113, Table 7, separate set of experiments
# [24] = Table 7, separate set of experiments, read-out: MIC
compound,measurement,setting,value
O=S(=O)(N[C@@H]1CCN(Cc2ccc(OC3CC3)cc2)C1)c1cccc(C(F)(F)F)c1 [Compound 156],MIC,Streptococcus agalactiae,> 8 µg/mL
same,MIC,Streptococcus pyogenes,> 8 µg/mL
same,MIC,"E. coli MG1655; MG1655, A: E. coli MG1655",~8 µg/mL
same,MIC,E. coli MG1655; [16],16 µg/mL
same,MIC,[1]; [17],4 µg/mL
same,MIC,[1]; [18],4 µg/mL
same,MIC,[2]; [19],> 8 µg/mL
same,MIC,[3],> 8 µg/mL
same,MIC,Shigella flexneri; G: Shigella flexneri,8 µg/mL
same,MIC,Shigella flexneri; [20],8 µg/mL
same,MIC,E. coli JW5503 (deltolC); C: E. coli JW5503 (deltolC),0.125 µg/mL
same,MIC,E. coli JW5503 (deltolC); [21],0.125 µg/mL
same,MIC,[4],> 8 µg/mL
same,MIC,[5]; Morganella morganii,> 16 µg/mL
same,MIC,[6]; [22],> 8 µg/mL
same,MIC,"[6]; Klebsiella pneumoniae subsp. pneumoniae, Table 7, separate set of experiments",> 16 µg/mL
same,MIC,Pseudomonas aeruginosa,> 16 µg/mL
same,MIC,Edwardsiella tarda; D: Edwardsiella tarda,~8 µg/mL
same,MIC,Edwardsiella tarda; [20],16 µg/mL
same,MIC,Acinetobacter baumannii,> 16 µg/mL
same,MIC,Enterobacter aerogenes,> 16 µg/mL
same,MIC,"E. coli BW25113; BW25113, B: E. coli BW25113",~8 µg/mL
same,MIC,E. coli BW25113; [23],16 µg/mL
"O=C(O)c1cn(C2CC2)c2cc(N3CCNCC3)c(F)cc2c1=O [Ciprofloxacin, ciprofloxacin]",MIC,[7],0.01 µM
same,MIC,[8],0.2 µM
same,MIC,[9],0.01 µM
same,MIC,[10],0.05 µM
same,MIC,[11],0.01 µM
same,MIC,[12],0.05 µM
same,MIC,[13],0.005 µM
same,MIC,[14],0.1 µM
same,MIC,E. coli BW25113 ΔtolC; Table 4,0.005 µM
same,MIC,E. coli BW25113 ΔtolC; Table 5,0.00625 µM
same,MIC,[15],0.005 µM
Cc1ccc(C#N)cc1S(=O)(=O)N[C@@H]1CCN(Cc2ccc(-c3ccccc3)cc2)C1 [Compound 143],MIC,"Streptococcus agalactiae; K: Streptococcus agalactiae, read-out: MIC",> 8 µg/mL
same,MIC,Streptococcus agalactiae; [24],> 16 µg/mL
same,MIC,"Streptococcus pyogenes; L: Streptococcus pyogenes, read-out: MIC",> 8 µg/mL
same,MIC,Streptococcus pyogenes; [24],> 16 µg/mL
same,MIC,"E. coli MG1655; MG1655, A: E. coli MG1655",8 µg/mL
same,MIC,E. coli MG1655; [16],16 µg/mL
same,MIC,Bacillus subtilis 168,> 16 µg/mL
same,MIC,[1]; [17],1 µg/mL
same,MIC,[1]; [18],2 µg/mL
same,MIC,[2]; [19],> 8 µg/mL
same,MIC,"[2]; Staphylococcus aureus subsp. aureus, Table 7, separate set of experiments",> 16 µg/mL
same,MIC,"[3]; I: Staphylococcus saprophyticus subsp. saprophyticus, read-out: MIC",> 8 µg/mL
same,MIC,"[3]; Staphylococcus saprophyticus subsp. saprophyticus, Table 7, separate set of experiments, read-out: MIC",> 16 µg/mL
same,MIC,Enterococcus faecalis,> 16 µg/mL
same,MIC,Enterococcus faecium,> 16 µg/mL
same,MIC,Shigella flexneri; G: Shigella flexneri,4 µg/mL
same,MIC,Shigella flexneri; [20],4 µg/mL
same,MIC,E. coli JW5503 (deltolC); C: E. coli JW5503 (deltolC),< 0.0625 µg/mL
same,MIC,E. coli JW5503 (deltolC); [21],< 0.0078 µg/mL
same,MIC,Bacillus cereus,> 16 µg/mL
same,MIC,"[4]; J: Staphylococcus epidermidis, read-out: MIC",~8 µg/mL
same,MIC,[4]; [24],> 16 µg/mL
same,MIC,"[5]; Morganella morganii subsp. morganii, Table 7, separate set of experiments, read-out: MIC",> 16 µg/mL
same,MIC,"[6]; E: Klebsiella pneumoniae subsp. pneumoniae, read-out: MIC",> 8 µg/mL
same,MIC,"[6]; Klebsiella pneumoniae subsp. pneumoniae, Table 7, separate set of experiments, read-out: MIC",> 16 µg/mL
same,MIC,Pseudomonas aeruginosa; [24],> 16 µg/mL
same,MIC,"Edwardsiella tarda; D: Edwardsiella tarda, read-out: MIC",~8 µg/mL
same,MIC,Edwardsiella tarda; [24],8 µg/mL
same,MIC,Acinetobacter baumannii; [24],> 16 µg/mL
same,MIC,"Enterobacter aerogenes; Enterobacter aerogenes, Table 7, separate set of experiments, read-out: MIC",> 16 µg/mL
same,MIC,"E. coli BW25113; BW25113, B: E. coli BW25113",~8 µg/mL
same,MIC,E. coli BW25113; [23],8 µg/mL
O=S(=O)(N[C@@H]1CCN(Cc2ccc(-c3cccs3)cc2)C1)c1cccc(OC(F)(F)F)c1 [Compound 53],MIC,Streptococcus agalactiae,> 8 µg/mL
same,MIC,Streptococcus pyogenes,> 8 µg/mL
same,MIC,"E. coli MG1655; MG1655, A: E. coli MG1655",> 8 µg/mL
same,MIC,[1]; [17],> 8 µg/mL
same,MIC,[2]; [19],> 8 µg/mL
same,MIC,[3],> 8 µg/mL
same,MIC,Shigella flexneri; G: Shigella flexneri,> 8 µg/mL
same,MIC,E. coli JW5503 (deltolC); C: E. coli JW5503 (deltolC),4 µg/mL
same,MIC,[4],8 µg/mL
same,MIC,[6]; [22],> 8 µg/mL
same,MIC,Edwardsiella tarda; D: Edwardsiella tarda,> 8 µg/mL
same,MIC,"E. coli BW25113; BW25113, B: E. coli BW25113",> 8 µg/mL
O=S(=O)(N[C@@H]1CCN(Cc2ccc(OC3CC3)cc2)C1)c1cc(C(F)(F)F)ccc1F [Compound 168],MIC,Streptococcus agalactiae,> 8 µg/mL
same,MIC,Streptococcus pyogenes,> 8 µg/mL
same,MIC,"E. coli MG1655; MG1655, E. coli MG1655",> 8 µg/mL
same,MIC,[1]; Salmonella enterica subsp. enterica Typhimurium,~8 µg/mL
same,MIC,[2]; Staphylococcus aureus subsp. aureus,> 8 µg/mL
same,MIC,[3],> 8 µg/mL
same,MIC,Shigella flexneri,~8 µg/mL
same,MIC,E. coli JW5503 (deltolC); E. coli JW5503 (deltolC),0.25 µg/mL
same,MIC,[4],> 8 µg/mL
same,MIC,[6]; Klebsiella pneumoniae subsp. pneumoniae,> 8 µg/mL
same,MIC,Edwardsiella tarda,> 8 µg/mL
same,MIC,"E. coli BW25113; BW25113, E. coli BW25113",> 8 µg/mL
